Test results: patent publication US8709385B2, “Poloxamer foamable pharmaceutical compositions with active agents and/or therapeutic cells and uses” (Foamix Ltd., priority 2008, dated 2014)
Read-outs that look alike come from different tables or passages of the source.

Experiments:
[1] = Solubility of 3% sodium diclofenac in Poloxamer 407 in water; format: physicochemical; settings: 3% in 5, 7 and 10 percent of Poloxamer in water, heated to 75° C. and cooled
Description: All 3 concentrations were heated to 75° C. to dissolution and cooled.

[2] = Microscope observation for crystals of active agent; format: physicochemical; settings: Poloxamer 407 at 15% concentration in the formulation
Text: Poloxamer 407 functions as co-solubilizer ingredient of sodium diclofenac.

[3] = Solubility and gelling of salicylic acid in Poloxamer 188 solution; format: physicochemical; settings: 0.50 gr. in 12.5 gr. of 20% Poloxamer 188
Text: In both vials, 1 & 2, there are 12.5 gr. of 20% Poloxamer 188/purified water stock solution (2.5 gr. Poloxamer 188+10 gr. purified water).

[4] = USP 29, cited from earlier work

| SMILES | crystals after 24 h [1] | crystals under the microscope [2] | state of Poloxamer 188 solution with doubled salicylic acid concentration [3] | solubility in water ([4]; 20° C.) | solubility in water [4] |
| --- | --- | --- | --- | --- | --- |
| O=C(O)Cc1ccccc1Nc1c(Cl)cccc1Cl [sodium diclofenac] | crystals were visually observed | crystals were not observed |  |  |  |
| O=C(O)c1ccccc1O [Salicylic acid] |  |  | viscous gel with no fluidity | ~0.2% | 1 gr. in 460 gr. |
